Results reported in US20240368173A1, “TRICYCLIC GPR65 MODULATORS” (PATHIOS THERAPEUTICS LIMITED, priority 2021, published 2024).
Where two headings read alike, the source gives them in different places.

Molecular target: human recombinant GPR65 (Homo sapiens, UniProt Q8IYL9)
Experiment: Human GPR65 cAMP HTRF antagonist assay
Assay type: cell-based
Method in brief: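 Antagonism measured as suppression of the cAMP rise when pH is dropped to 7.2 (control wells pH 7.9) in 1321N1 cells stably carrying human GPR65. Cells in KRH with 1 mM IBMX and 200 μM EDTA saw compound 30 min, then acid stimulation 30 min; HTRF cAMP detection, normalised, 4-parameter logistic IC50.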

[1] = 1321N1-hrGPR65 cells, cAMP HTRF, assay pH 7.2, read-out: hGPR65 IC50 (Activity of selected compounds according to the invention)

human recombinant GPR65, sequence (Q8IYL9 whole entry): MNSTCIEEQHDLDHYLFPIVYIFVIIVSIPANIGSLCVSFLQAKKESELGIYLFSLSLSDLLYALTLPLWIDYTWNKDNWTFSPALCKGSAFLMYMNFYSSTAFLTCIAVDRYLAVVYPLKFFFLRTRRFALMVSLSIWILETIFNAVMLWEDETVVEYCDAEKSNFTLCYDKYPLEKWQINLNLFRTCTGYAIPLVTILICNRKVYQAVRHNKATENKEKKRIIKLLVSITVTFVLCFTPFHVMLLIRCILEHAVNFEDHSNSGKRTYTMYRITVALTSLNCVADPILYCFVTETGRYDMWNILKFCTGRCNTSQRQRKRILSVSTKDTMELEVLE

SMILES	IC50 [nM]	IC50 [1] [nM]
O=C(Nc1cc(Cl)c(-c2cccnc2)cc1F)N1[C@H]2CC[C@@H]1c1n[nH]c(=O)cc1C2 [Compound 136, (6S,9R)-N-(5-Chloro-2-fluoro-4-(pyridin-3-yl)phenyl)-3-oxo-3,5,6,7,8,9-hexahydro-2H-6,9-epiminocyclohepta[c]pyridazine-10-carboxamide]	< 500	
COC(=O)c1cncc(-c2cc(F)c(NC(=O)N3[C@H]4CC[C@@H]3c3n[nH]c(=O)cc3C4)cc2Cl)c1 [Compound 188, Methyl 5-(2-chloro-5-fluoro-4-((6S,9R)-3-oxo-3,5,6,7,8,9-hexahydro-2H-6,9-epiminocyclohepta[c]pyridazine-10-carboxamido)phenyl)nicotinate]	< 500	
O=C(Nc1cc(Cl)c(C(F)(F)F)cc1F)N1[C@@H]2CC[C@H]1c1ccnc(F)c1[C@H]2F [Compound 295, (5S,8R,9R)-N-(5-Chloro-2-fluoro-4-(trifluoromethyl)phenyl)-1,9-difluoro-6,7,8,9-tetrahydro-5H-5,8-epiminocyclohepta[c]pyridine-10-carboxamide]	< 500	
CO[C@H]1C[C@@H](Oc2ccc(NC(=O)N3C4CCC3c3n[nH]c(=O)cc3C4)cc2Cl)C1 (mixture of isomers) [Compound 36, (±)-N-(3-Chloro-4-((1s,3S)-3-methoxycyclobutoxy)phenyl)-3-oxo-3,5,6,7,8,9-hexahydro-2H-6,9-epiminocyclohepta[c]pyridazine-10-carboxamide]		> 5000
O=C(Nc1cc(Cl)c(-c2cncc(F)c2)cc1F)N1[C@H]2CC[C@@H]1c1ccnc(F)c1C2 [Compound 200, (5R,8S)-N-(5-Chloro-2-fluoro-4-(5-fluoropyridin-3-yl)phenyl)-1-fluoro-6,7,8,9-tetrahydro-5H-5,8-epiminocyclohepta[c]pyridine-10-carboxamide]	< 500	
O=C(Nc1cc(I)c(Cl)cc1F)N1[C@H]2CC[C@@H]1c1ccnc(F)c1C2 [Compound 78, (5R,8S)-N-(4-Chloro-2-fluoro-5-iodophenyl)-1-fluoro-6,7,8,9-tetrahydro-5H-5,8-epiminocyclohepta[c]pyridine-10-carboxamide]		500 to 5000
O=C(Nc1cc(Cl)c(Br)cc1F)N1C2CCC1c1c[nH]c(=O)nc1C2 (racemic) [Compound 16, (±)-N-(4-bromo-5-chloro-2-fluorophenyl)-2-oxo-3,5,6,7,8,9-hexahydro-2H-5,8-epiminocyclohepta[d]pyrimidine-10-carboxamide]	< 500	
O=C(Nc1cc(Cl)c(C(F)(F)F)cc1F)N1[C@@H]2CC[C@H]1C(F)(F)c1c2ccnc1F [Compound 227, (5R,8S)-N-(5-Chloro-2-fluoro-4-(trifluoromethyl)phenyl)-1,9,9-trifluoro-6,7,8,9-tetrahydro-5H-5,8-epiminocyclohepta[c]pyridine-10-carboxamide]	< 500	
Cn1ncc2cc(-c3cc(F)c(NC(=O)N4[C@H]5CC[C@@H]4c4n[nH]c(=O)cc4C5)cc3Cl)ccc21 [Compound 164, (6S,9R)-N-(5-Chloro-2-fluoro-4-(1-methyl-1H-indazol-5-yl)phenyl)-3-oxo-3,5,6,7,8,9-hexahydro-2H-6,9-epiminocyclohepta[c]pyridazine-10-carboxamide]	< 500	
O=C1NCCc2cc(-c3cc(F)c(NC(=O)N4[C@H]5CC[C@@H]4c4n[nH]c(=O)cc4C5)cc3Cl)ccc21 [Compound 151, (6S,9R)-N-(5-Chloro-2-fluoro-4-(1-oxo-1,2,3,4-tetrahydroisoquinolin-6-yl)phenyl)-3-oxo-3,5,6,7,8,9-hexahydro-2H-6,9-epiminocyclohepta[c]pyridazine-10-carboxamide]		> 5000
O=C(Nc1cc(Cl)c(-c2cnc(F)c(F)c2)cc1F)N1[C@H]2CC[C@@H]1c1ccnc(F)c1C2 [Compound 262, (5R,8S)-N-(5-chloro-4-(5,6-difluoropyridin-3-yl)-2-fluorophenyl)-1-fluoro-6,7,8,9-tetrahydro-5H-5,8-epiminocyclohepta[c]pyridine-10-carboxamide]	< 500	
